In article PMC11387175, “Model informed dose regimen optimizing in development of leritrelvir for the treatment of mild or moderate COVID-19” (Frontiers in Pharmacology, 2024):

Key:
[1] = tested on: Omicron variant; experiment: Target concentration needed to achieve EC90; format: cell-based, SARS-CoV-2
[2] = tested on: Omicron XBB.1.9.1 variant; set-up: method as in Chen et al., 2024; conditions: ref Chen et al., 2024, read-out: concentration for 90% of maximal effect (EC90); cited from earlier work

O=C(NC1CCCC1)C(=O)[C@H](C[C@@H]1CCNC1=O)NC(=O)[C@@H]1[C@H]2CCC[C@H]2CN1C(=O)[C@@H](NC(=O)C(F)(F)F)C1CCCCC1 [leritrelvir]
concentration needed to achieve EC90 [1]: 209.7 ng/mL
EC90 [2]: 415 nM
